Measured values published in US8658638B2, “Mineralocorticoid receptor antagonist and methods of use” (priority 2009, dated 2014).

Target: T1, human MR (mineralocorticoid receptor) (Homo sapiens, UniProt P08235)
T1 construct: expressed in transfected cells; host or cells: HEK293 (293-MR lysate)
T1 sequence (P08235 1-984): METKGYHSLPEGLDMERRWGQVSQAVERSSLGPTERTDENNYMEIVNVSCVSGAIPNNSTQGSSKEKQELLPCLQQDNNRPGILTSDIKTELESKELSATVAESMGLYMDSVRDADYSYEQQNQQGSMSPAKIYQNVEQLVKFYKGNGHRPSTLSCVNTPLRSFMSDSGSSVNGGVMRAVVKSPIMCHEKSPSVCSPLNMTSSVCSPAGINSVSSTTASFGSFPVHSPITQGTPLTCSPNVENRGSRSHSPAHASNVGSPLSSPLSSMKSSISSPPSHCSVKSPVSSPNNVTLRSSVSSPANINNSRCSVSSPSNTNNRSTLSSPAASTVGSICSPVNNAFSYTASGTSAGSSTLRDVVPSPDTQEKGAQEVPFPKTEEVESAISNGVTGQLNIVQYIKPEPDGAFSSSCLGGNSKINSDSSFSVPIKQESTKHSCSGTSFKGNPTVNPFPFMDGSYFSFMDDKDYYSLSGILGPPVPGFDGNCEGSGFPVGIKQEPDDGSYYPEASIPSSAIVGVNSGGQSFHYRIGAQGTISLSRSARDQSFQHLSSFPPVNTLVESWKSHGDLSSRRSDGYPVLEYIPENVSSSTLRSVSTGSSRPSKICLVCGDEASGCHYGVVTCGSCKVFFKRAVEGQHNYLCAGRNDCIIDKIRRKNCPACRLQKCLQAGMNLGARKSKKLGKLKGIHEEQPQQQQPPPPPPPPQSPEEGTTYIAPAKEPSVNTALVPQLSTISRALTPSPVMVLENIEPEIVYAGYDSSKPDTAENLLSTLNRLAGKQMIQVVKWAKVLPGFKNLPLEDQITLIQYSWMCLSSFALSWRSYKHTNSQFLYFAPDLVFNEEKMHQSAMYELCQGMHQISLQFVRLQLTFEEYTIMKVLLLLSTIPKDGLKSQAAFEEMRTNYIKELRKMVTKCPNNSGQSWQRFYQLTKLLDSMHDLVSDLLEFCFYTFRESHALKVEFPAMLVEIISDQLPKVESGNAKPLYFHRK
Assay: Steroid nuclear hormone receptor binding assay, MR
Details: [3H]-aldosterone, HEK293 lysate overexpressing human MR
Experimental: Cell lysates from human embryonic kidney HEK293 cells overexpressing human MR (mineralocorticoid receptor), GR (glucocorticoid receptor), AR (androgen receptor), or PR (progesterone receptor) are used for receptor-ligand competition binding assays to determine Ki values.
Briefly, steroid receptor competition binding assays are run in a buffer containing 20 mM HEPES buffer (pH=7.6), 0.2 mM EDTA, 75 mM NaCl, 1.5 mM MgCl2, 20% glycerol, 20 mM sodium molybdate, 0.2 mM DTT (dithiothreitol), 20 μg/mL aprotinin and 20 μg/mL leupeptin (assay buffer). Typically, steroid receptor binding assays include radio-labeled ligands, such as 0.25 nM [^3H]-aldosterone for MR binding, 0.7 nM [^3H]-dexamethasone for GR binding, 0.36 nM [^3H]-methyltrienolone for AR binding, and 0.29 nM [^3H]-methyltrienolone for PR binding, and either 20 μg 293-MR lysate, 20 μg 293-GR lysate, 22 μg 293-AR lysate, or 40 μg 293-PR lysate per well. Assays are typically run in 96-well format. Competing test compounds are added at various concentrations ranging from about 0.01 nM to 10 μM. Non-specific binding is determined in the presence of 500 nM aldosterone for MR binding, 500 nM dexamethasone for GR binding, or 500 nM methyltrienolone for AR and PR binding. […] After an incubation of 2 hours, plates are read in a Wallac Microbeta counter. […]

Ki: ~0.4 nM
Structure (SMILES): O=c1[nH]c2cc(/C=C3\c4ccccc4COc4cc(F)ccc43)ccc2n1[C@@H]1C[C@@H]2COCCN2C1 [Compound (I), 5-((E)-(3-fluorodibenzo[b,e]oxepin-11(6H)-ylidene)methyl)-1-((7R,8aR)-hexahydro-1H-pyrrolo[2,1-c][1,4]oxazin-7-yl)-1H-benzo[d]imidazol-2(3H)-one]
